Measurements from paper PMC3163098 (2011).

Assays:
Type in all cases: binding
cytochrome P450 2B4 [1] = target: T1, cytochrome P450 2B4 (Oryctolagus cuniculus, UniProt P00178, H226Y); assay: UV-visible difference spectral titration
T1 sequence (P00178 28-491 H226Y): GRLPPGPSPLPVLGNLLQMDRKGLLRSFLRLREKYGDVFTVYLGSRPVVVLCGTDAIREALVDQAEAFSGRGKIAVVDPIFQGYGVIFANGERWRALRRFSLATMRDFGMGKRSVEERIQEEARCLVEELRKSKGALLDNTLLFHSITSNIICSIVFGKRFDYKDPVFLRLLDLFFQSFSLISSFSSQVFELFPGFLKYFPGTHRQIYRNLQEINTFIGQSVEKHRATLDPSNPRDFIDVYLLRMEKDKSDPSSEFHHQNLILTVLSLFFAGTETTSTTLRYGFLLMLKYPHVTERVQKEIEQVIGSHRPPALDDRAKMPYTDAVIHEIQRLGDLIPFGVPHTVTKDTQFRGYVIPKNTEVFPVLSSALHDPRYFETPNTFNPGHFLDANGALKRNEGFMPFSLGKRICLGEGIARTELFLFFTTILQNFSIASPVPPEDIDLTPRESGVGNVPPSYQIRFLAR

cytochrome P450 2B4 [2] = target: T1, cytochrome P450 2B4; assay: UV-visible competition with benzphetamine
cytochrome P450 2B4 [3] = target: T1, cytochrome P450 2B4; assay: UV-visible difference spectral titration; remark: listed apart in the source
cytochrome P450 2B4 [4] = target: T1, cytochrome P450 2B4; assay: UV-visible difference spectral titration; remark: listed apart in the source

`Cc1c(N)c(=O)n(-c2ccccc2)n1C` [AAP, aminoantipyrine] gave a Kd (cytochrome P450 2B4 [1]) of 2600 µM.
Work on `Cc1c(N(C)C)c(=O)n(-c2ccccc2)n1C` [AP, amidopyrine] yielded a Kd (cytochrome P450 2B4 [2]) of 2000 µM.
Work on `C[C@@H](Cc1ccccc1)N(C)Cc1ccccc1` [BP, benzphetamine] yielded a Kd (cytochrome P450 2B4 [3]) of 34 µM.
With `CNc1c(C)n(C)n(-c2ccccc2)c1=O` [DMAP, desmethylamidopyrine] the Kd (cytochrome P450 2B4 [4]) was 3200 µM.
